Read-outs that look alike come from different tables or passages of the source.
Tests used:
STK10 [1] = molecular target: T1, STK10 (Homo sapiens, UniProt O94804); conditions: Figure 1; reference not given; read-out: STK10 in vitro IC50; cited from earlier work
T1 construct: purchased in-house DSF kinase panel (SGC-style construct names; the trailing letter is the construct ID)

TIE2 = conditions: Figure 1; reference not given; read-out: TIE2 in vitro IC50; cited from earlier work
BRK = conditions: Figure 1; reference not given; read-out: BRK in vitro IC50; cited from earlier work
STK10 [2] = molecular target: T1, STK10; test: DSF Tm panel; format: binding; conditions: 10 μM compound
STK10 [3] = molecular target: T1, STK10; test: PhosphoSens in vitro activity assay; format: biochemical; conditions: ATP 160 μM
SLK [4] = molecular target: T2, SLK (Homo sapiens, UniProt Q9H2G2); test: PhosphoSens in vitro activity assay; format: biochemical; conditions: ATP 150 μM
SLK [5] = molecular target: T2, SLK; test: DSF Tm panel; format: binding; parameters: purchased in-house DSF kinase panel (SGC-style construct names; the trailing letter is the construct ID); conditions: 10 μM compound
SLK [6] = molecular target: T2, SLK; test: NanoBRET target engagement assay; format: cell-based; parameters: has a greater impact on the full-length protein than on the kinase domains; host or cells: HEK293T (ATCC CRL-3216); conditions: HEK293T cells

T1 sequence (O94804 18-317 limits assumed): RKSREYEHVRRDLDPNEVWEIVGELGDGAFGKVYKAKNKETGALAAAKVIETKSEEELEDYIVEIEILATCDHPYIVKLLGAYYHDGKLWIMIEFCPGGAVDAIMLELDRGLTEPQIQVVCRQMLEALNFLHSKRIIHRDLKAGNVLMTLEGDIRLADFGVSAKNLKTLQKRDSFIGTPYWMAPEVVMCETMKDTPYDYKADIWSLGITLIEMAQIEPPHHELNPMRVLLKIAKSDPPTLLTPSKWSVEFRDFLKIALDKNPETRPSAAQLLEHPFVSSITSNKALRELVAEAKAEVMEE

| Structure (SMILES) | IC50 (STK10 [1]) [nM] | IC50 (TIE2) [nM] | IC50 (BRK) [nM] | ΔTm at 10 µM (STK10 [2]) [°C] | IC50 (STK10 [3]) [nM] | IC50 (SLK [4]) [nM] | ΔTm at 10 µM (SLK [5]) [°C] | EC50 (SLK [6]) [nM] |
| --- | --- | --- | --- | --- | --- | --- | --- | --- |
| COc1ccc2cc(-c3c(-c4ccncc4)nc(-c4ccc(S(C)(=O)=O)cc4C)n3C)ccc2c1 [SB-633825 (3), SB-633825] | 66 | 3.5 | 150 |  |  |  |  |  |
| Cc1cc(F)ccc1CNC(=O)Nc1ccc2cc1OCCOCCNc1ccn3ncc-2c3n1 [compound 22] |  |  |  | 8.3 | 3160 ± 670 | 3130 ± 930 | 3.7 | > 50000 |
| Cc1cc(C(F)(F)F)ccc1CNC(=O)Nc1ccc2cc1OCCOCCNc1ccn3ncc-2c3n1 [compound 25] |  |  |  | 9 | 1070 ± 110 | 2690 ± 510 | 3.8 | > 50000 |
